Measurements as given in patent US10137169B2, “Compositions and uses thereof” (FOLLICUM AB, priority 2011, dated 2018).
“Also recorded” adds a separate entry of the source.

What was measured:
Mice (C57BL/6) [1] = test: In vivo study of hair growth effect in mice of the wildtype osteopontin fragment (Example C); set-up: Hair growth score, Mean: scale not given here; settings: for Hair growth score, Mean: mean of 6 animals
Procedure: Animals, as described above in Example B, were treated as described in Table 6:
• This sequence is a fragment of wildtype mouse osteopontin, and corresponds to the region of the protein from which “FOL-004” is derived (i.e. “FOL-004” is a mutated version of wildtype fragment “FOL-001”). • Animals were administered the specified treatment on Days 1, 5 and 9 • Treatment were administered by subcutaneous injection into dorsal clipped skin Scoring Criteria • The effect of the treatments was observed and scored daily as described in Example B. Results

Mice (C57BL/6) [2] = test: In vivo study of hair growth effect in mice, hair growth score (Example B); set-up: Hair growth score / Hair growth score, Mean: scale not given here; settings: for day from which hair growth was evident / hair growth effect / Hair growth score, Mean: 60 nM s.c. on Days 1, 5 and 9; for hair growth effect: assessment to day 16; for Hair growth score, Mean: mean of 5 animals
Procedure: Mice (C57BL/6) were used at an age of 6 to 8 weeks.
• Selection of animals in telogen phase of hair growth. • Clipping of dorsal back of animals • Subcutaneous injection of test peptide/vehicle • Visual analysis: Percentage anagen induction; Mean hair growth score; Visual melanogenesis: • Histological analysis: Follicle count in subcutis; Morphometry for skin thickness. Treatment Groups • Animals were assigned randomly to treatment groups (see Table 3)
• Animals were administered the specified treatment on Days 1, 5 and 9 • Treatment were administered by subcutaneous injection into dorsal clipped skin Scoring Criteria • The effect of the treatments was observed and scored daily according to the criteria in Table 4

Mice (C57BL/6) [3] = test: Observation of melanogenesis / anagen induction, external and peeled skin (Example D); format: in vivo; settings: 60 nM; for Black colour in peeled skin (day 16): animals out of 5; for % anagen induction**: with respect to black colour in peeled skin; for Black colour in peeled skin (day 16) / % anagen induction**: day 16; for % anagen induction*: with respect to external skin colour change from pink to black
Excerpt: (§1) Animals and treatments are as described above in Example B.
(§2) All animals were sacrificed on day 16.
Following completion of the term of hair growth assessment for Example B, the animals were euthanized and dorsal skin peeled and removed for observation of the internal surface.
The hair growth cycle consists of three phases: a resting telogen phase (C57BL/6 skin is a pale pink colour), an active hair growth anagen phase (where the skin becomes dark gray or black), and finally a catagen phase (where hair growth stops, and the skin transitions back to the telogen phase, returning to a pale pink colour).
(§3) In the present study, the animals were preselected for pink skin (telogen phase) and the test polypeptide was administered by subcutaneous/topical route. A good hair growth promoter triggers the transition from the resting telogen phase to the active anagen phase, and thus a transition from light skin to dark skin. This dark pigmentation may result from the collection of melanin in the hair follicles, in preparation for new hair growth during the anagen phase. Melanin synthesis of follicular melanocytes is strictly coupled to the anagen phase, ceases during catagen and is absent in telogen phase. […] Upon termination, the dorsal skin of the animals was then excised out by peeling and the peeled skin reversed and observed for the induction of melanogenesis indicated by visual blackening. […] A good hair growth promoter increases no. of follicles in sub cutis and skin thickness.

Mice (C57BL/6) [4] = test: Histological analysis of peeled skin: follicle count in subcutis and skin thickness (Example D); format: in vivo; set-up: Skin thickness: unit not given here; settings: Mean ± sem, day 16, 60 nM
Procedure: as §1, §2
Peeled skin sections were prepared for histological analysis as described in Example A. Follicle count in the subcutis and skin thickness were then measured.
as §3

male wtC57BL/6N mice = test: In vivo study of hair follicle density in mouse skin after intracutaneous injection (Example A); settings: data not shown
Excerpt: The modified osteopontin polypeptide sequence SEQ ID NO:1 was cloned into a pCEP4 expression vector by the use of XhoI and BamHI restriction enzyme sites. The pCEP4 expression vector contains an ampicillin resistance gene for expression in bacteria and a hygromycin resistance gene for expression in eukaryotic EBNA cells. The polypeptide containing vector were transformed into competent XL-10 bacteria cells, multiplied and isolated with Qiagen midi prep kit. Isolated vectors were then transfected into human EBNA cells by the use of Fugene transfection reagent according to manufacture protocol (Invitrogen).
Medium from EBNA cell culture containing the produced polypeptide were collected after three to four days of culture. Polypeptides produced by pCEP4 plasmid contain an inserted His-tag, which is used to facilitate the isolation with Ni-sepharose gel chromatography (Invitrogen). Collected medium was diluted with binding buffer (20 mM sodium phosphate, 500 mM sodium chloride, pH 7.8), Ni-sepharose suspension was added before incubation on shaker overnight at 4° C. […]
Protocol for Hematoxylin-staining of paraffin-embedded sections of Group 1 1. […] Mount slide using Permount and coveslip. a) the time depends on the type of hematoxylin used, 20 sec to 10 min (which can be determined by the use of test slides) b) filtrated before use Results

Substance: VDVPNGRGDSLAYGLR (FOL-001) [fragment of wildtype mouse osteopontin, region from which FOL-004 is derived]
- day at which hair growth effect became evident (Mice (C57BL/6) [1]; 60 nM s.c. on Days 1, 5 and 9): ~9 days
- hair growth effect (Mice (C57BL/6) [1]; 60 nM s.c. on Days 1, 5 and 9): delayed but detectable hair growth effect
- plateau of hair growth score (Mice (C57BL/6) [1]; 60 nM s.c. on Days 1, 5 and 9): about 1.3
- hair growth effect (Mice (C57BL/6) [1]; 60 nM s.c. on Days 1, 5 and 9, listed as equivalent non-mutated wild type sequence): delayed onset of hair growth stimulation
- Hair growth score, Mean (Mice (C57BL/6) [1]; Day 1, 60 nM s.c. on Days 1, 5 and 9): 0
- Hair growth score, Mean (Mice (C57BL/6) [1]; Day 2, 60 nM s.c. on Days 1, 5 and 9): 0
- Hair growth score, Mean (Mice (C57BL/6) [1]; Day 5, 60 nM s.c. on Days 1, 5 and 9): 0.17
- Hair growth score, Mean (Mice (C57BL/6) [1]; Day 6, 60 nM s.c. on Days 1, 5 and 9): 0.17
- Hair growth score, Mean (Mice (C57BL/6) [1]; Day 7, 60 nM s.c. on Days 1, 5 and 9): 0.17
- Hair growth score, Mean (Mice (C57BL/6) [1]; Day 8, 60 nM s.c. on Days 1, 5 and 9): 0.17
- Hair growth score, Mean (Mice (C57BL/6) [1]; Day 9, 60 nM s.c. on Days 1, 5 and 9): 0.58
- Hair growth score, Mean (Mice (C57BL/6) [1]; Day 12, 60 nM s.c. on Days 1, 5 and 9): 1.17
- Hair growth score, Mean (Mice (C57BL/6) [1]; Day 13, 60 nM s.c. on Days 1, 5 and 9): 1.17
- Hair growth score, Mean (Mice (C57BL/6) [1]; Day 14, 60 nM s.c. on Days 1, 5 and 9): 1.33
- Hair growth score, Mean (Mice (C57BL/6) [1]; Day 15, 60 nM s.c. on Days 1, 5 and 9): 1.33
- maximum effect relative to that observed with FOL-004 (Mice (C57BL/6) [1]; hair growth score): less than 50%

Substance: VDVPNGDISLAYGLR (Preferred 15-amino acid peptide (FOL-004))
- day from which hair growth was evident (Mice (C57BL/6) [2]): 5 days
- hair growth effect (Mice (C57BL/6) [2]): rapid hair growth; also recorded: particular fast onset of action
- Hair growth score, Mean (Mice (C57BL/6) [2]; Day 1): 0.0
- Hair growth score, Mean (Mice (C57BL/6) [2]; Day 2): 0.0
- Hair growth score, Mean (Mice (C57BL/6) [2]; Day 5): 1.7
- Hair growth score, Mean (Mice (C57BL/6) [2]; Day 6): 2.1
- Hair growth score, Mean (Mice (C57BL/6) [2]; Day 7): 2.4
- Hair growth score, Mean (Mice (C57BL/6) [2]; Day 8): 2.5
- Hair growth score, Mean (Mice (C57BL/6) [2]; Day 9): 2.6
- Hair growth score, Mean (Mice (C57BL/6) [2]; Day 12): 2.7
- Hair growth score, Mean (Mice (C57BL/6) [2]; Day 13): 2.7
- Hair growth score, Mean (Mice (C57BL/6) [2]; Day 14): 2.7
- Hair growth score, Mean (Mice (C57BL/6) [2]; Day 15): 2.9
- Hair growth score, Mean (Mice (C57BL/6) [2]; Day 16): 3.0
- No. of animals showing hair growth (Mice (C57BL/6) [3]): 5/5
- Skin colour (external) (Mice (C57BL/6) [3]): Black
- Skin colour (external): animals with this colour (Mice (C57BL/6) [3]): (5/5 animals)
- Black colour in peeled skin (day 16) (Mice (C57BL/6) [3]): 1/5
- % anagen induction** (Mice (C57BL/6) [3]): 20%
- % anagen induction* (Mice (C57BL/6) [3]): 100%
- Follicle count in subcutis (no.) (Mice (C57BL/6) [4]; all animals): 6.20 ± 5.80 no.
- Skin thickness (Mice (C57BL/6) [4]; all animals): 312.2 ± 15.60
- Follicle count in subcutis (no.) (Mice (C57BL/6) [4]; animals in anagen only): 29 ± 5.8 no.
- Skin thickness (Mice (C57BL/6) [4]; animals in anagen only): 312.2 ± 15.60

Substance: VDTYDGDISVVYGLR (Preferred 15-amino acid peptide) [FOL-005]
- day from which hair growth was evident (Mice (C57BL/6) [2]): 5 days
- hair growth effect (Mice (C57BL/6) [2]): rapid hair growth; also recorded: particular fast onset of action
- Hair growth score, Mean (Mice (C57BL/6) [2]; Day 1): 0.0
- Hair growth score, Mean (Mice (C57BL/6) [2]; Day 2): 0.0
- Hair growth score (Mice (C57BL/6) [2]; Day 5, individual animal, 60 nM, 25 μl s.c. on Days 1, 5 and 9): 2.0
- Hair growth score, Mean (Mice (C57BL/6) [2]; Day 5): 1.3
- Hair growth score, Mean (Mice (C57BL/6) [2]; Day 6): 1.7
- Hair growth score, Mean (Mice (C57BL/6) [2]; Day 7): 1.9
- Hair growth score, Mean (Mice (C57BL/6) [2]; Day 8): 2.1
- Hair growth score, Mean (Mice (C57BL/6) [2]; Day 9): 2.3
- Hair growth score, Mean (Mice (C57BL/6) [2]; Day 12): 2.7
- Hair growth score, Mean (Mice (C57BL/6) [2]; Day 13): 2.8
- Hair growth score, Mean (Mice (C57BL/6) [2]; Day 14): 2.8
- Hair growth score, Mean (Mice (C57BL/6) [2]; Day 15): 3.0
- Hair growth score, Mean (Mice (C57BL/6) [2]; Day 16): 3.0
- No. of animals showing hair growth (Mice (C57BL/6) [3]): 5/5
- Skin colour (external) (Mice (C57BL/6) [3]): Black
- Skin colour (external): animals with this colour (Mice (C57BL/6) [3]): (5/5 animals)
- Black colour in peeled skin (day 16) (Mice (C57BL/6) [3]): 3/5
- % anagen induction** (Mice (C57BL/6) [3]): 60%
- % anagen induction* (Mice (C57BL/6) [3]): 100%
- Follicle count in subcutis (no.) (Mice (C57BL/6) [4]; all animals): 34.80 ± 14.58 no.
- Skin thickness (Mice (C57BL/6) [4]; all animals): 348.80 ± 40.05
- Follicle count in subcutis (no.) (Mice (C57BL/6) [4]; animals in anagen only): 58 ± 14.58 no.
- Skin thickness (Mice (C57BL/6) [4]; animals in anagen only): 348.80 ± 40.05

Substance: wildtype mouse osteopontin: wildtype mouse osteopontin protein, comparator in Example A
- effect on hair growth (male wtC57BL/6N mice): no detectable effect on hair growth
